The results in this text go back to US20230250060A1 (IFM Due, Inc., priority 2022, published 2023).

In this experiment the target is T1, STING (Homo sapiens, UniProt Q86WV6, G230A/H232R/R293Q/R71H).
T1 construct: host or cells: THP1-Dual KO-IFNAR2 cells
In words: STING reporter assay (luciferase) in THP1-Dual KO-IFNAR2 cells stimulated with 2′3′cGAMP. Conditions: 2′3′cGAMP 15 μM final, 24 h, luciferase reporter activity, read-out: Pharmaron, THP1_IFNAR2 STING 24 h Luci Normalized: GeoMean EC50. It counts as cell-based. As for the experimental part:
STING pathway activation by the compounds described herein was measured using TTIP1-Dual™ cells (KO-IFNAR2).
TTIP1-Dual™ KO-IFNAR2 Cells (obtained from invivogen) were maintained in RPMI, 10% FCS, 5 ml P/S, 2 mM L-glut, 10 mM Hepes, and 1 mM sodium pyruvate. Compounds were spotted in empty 384 well tissue culture plates (Greiner 781182) by Echo for a final concentration of 0.0017-100 μM. Cells were plated into the TC plates at 40 μL per well, 2×10E6 cells/mL. For activation with STING ligand, 2′3′cGAMP (MW 718.38, obtained from Invivogen), was prepared in Optimem media.
The following solutions were prepared for each 1×384 plate: • Solution A: 2 mL Optimem with one of the following stimuli: • […] • Solution B: 2 mL Optimem with […] Lipofectamine 2000→Incubate 5 min at RT
2 mL of solution A and 2 ml Solution B was mixed and incubated for 20 min at room temperature (RT). 20 μL of transfection solution (A+B) was added on top of the plated cells, with a final 2′3′cGAMP concentration of 15 μM. The plates were then centrifuged immediately at 340 g for 1 minute, after which they were incubated at 37° C., 5% CO2, >98% humidity for 24 h. Luciferase reporter activity was then measured. EC50 values were calculated by using standard methods known in the art.
Luciferase reporter assay: 10 μL of supernatant from the assay was transferred to white 384-plate with flat bottom and squared wells. One pouch of QUANTI-Luc™ Plus was dissolved in 25 mL of water. 100 μL of QLC Stabilizer per 25 mL of QUANTI-Luc™ Plus solution was added. 50 μL of QUANTI-Luc™ Plus/QLC solution per well was then added. Luminescence was measured on a Platereader (e.g., Spectramax I3X (Molecular Devices GF3637001)).
Luciferase reporter activity was then measured. EC50 values were calculated by using standard methods known in the art.
For orientation: In a reporter assay the amount or activity of a reporter protein is the signal.

T1 sequence (Q86WV6 whole entry R71H/G230A/H232R/R293Q): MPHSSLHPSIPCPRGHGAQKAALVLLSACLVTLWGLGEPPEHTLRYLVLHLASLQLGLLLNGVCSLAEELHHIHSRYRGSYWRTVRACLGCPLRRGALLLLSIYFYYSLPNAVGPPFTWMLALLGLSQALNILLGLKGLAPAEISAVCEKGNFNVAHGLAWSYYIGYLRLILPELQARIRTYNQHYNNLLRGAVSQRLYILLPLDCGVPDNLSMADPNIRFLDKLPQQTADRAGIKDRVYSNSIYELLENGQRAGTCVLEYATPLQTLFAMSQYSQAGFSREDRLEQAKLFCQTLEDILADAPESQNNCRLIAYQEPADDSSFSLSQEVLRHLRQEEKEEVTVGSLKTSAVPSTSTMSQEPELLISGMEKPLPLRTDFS

A word on the EC50: it is the concentration giving half of the maximal effect. With `O=C(Nc1c[nH]c2ccc(O[C@H]3C[C@@H](c4ccc(C(F)(F)F)cc4)C3)cc12)C1CC2(CC2)C1` [Compound 156, N-(5-((1s,3s)-3-(4-(trifluoromethyl)phenyl)cyclobutoxy)-1H-indol-3-yl)spiro[2.3]hexane-5-carboxamide], the half-maximal effective concentration (EC50) lay in the range of 200 to 1000 nM.

As to `O=C(Nc1c[nH]c2ccc(OCC[C@@H]3C[C@@H]4CN(CC(F)(F)F)C[C@@H]4C3)cc12)C1CC2(CCC2)C1` [Compound 157, N-(5-(2-((3aR,5r,6aS)-2-(2,2,2-trifluoroethyl)octahydrocyclopenta[c]pyrrol-5-yl)ethoxy)-1H-indol-3-yl)spiro[3.3]hexane-2-carboxamide], the EC50 was in the range of 200 to 1000 nM.

For the molecule `O=C(Nc1c[nH]c2ccc(OCC[C@@H]3C[C@@H]4CN(CC(F)(F)F)C[C@@H]4C3)cc12)C1CC12CC2` (stereo partly drawn) [Compound 158, N-(5-(2-((3aR,5r,6aS)-2-(2,2,2-trifluoroethyl)octahydrocyclopenta[c]pyrrol-5-yl)ethoxy)-1H-indol-3-yl)spiro[2.2]pentane-1-carboxamide], the concentration for a half-maximal effect (EC50) lay within 1000 to 5000 nM.

As for `Cc1oncc1C(=O)Nc1c[nH]c2ccc(OCC[C@@H]3C[C@@H]4CN(CC(F)(F)F)C[C@@H]4C3)cc12` [Compound 159, 5-methyl-N-(5-(2-((3aR,5r,6aS)-2-(2,2,2-trifluoroethyl)octahydrocyclopenta[c]pyrrol-5-yl)ethoxy)-1H-indol-3-yl)isoxazole-4-carboxamide], the concentration giving a half-maximal response (EC50) lay within 5000 to 100000 nM.

As to `O=C(Nc1c[nH]c2ccc(CCOc3ccc(C(F)(F)F)cc3)cc12)c1ccn[nH]1` [Compound 160, N-(5-(2-(4-(trifluoromethyl)phenoxy)ethyl)-1H-indol-3-yl)-1H-pyrazole-5-carboxamide], the EC50 is 200 to 1000 nM.

`O=C(Nc1c[nH]c2ccc(OCCc3ccc(C(F)(F)F)cc3)cc12)c1ncco1` [Compound 161, N-(5-(4-(trifluoromethyl)phenethoxy)-1H-indol-3-yl)oxazole-2-carboxamide]: the 50% effective concentration (EC50) was 200 to 1000 nM.

Regarding `Cn1nccc1C(=O)Nc1c[nH]c2ccc(OCc3ccc(C(F)(F)F)cc3)cc12` [Compound 162, 1-methyl-N-(5-((4-(trifluoromethyl)benzyl)oxy)-1H-indol-3-yl)-1H-pyrazole-5-carboxamide], the 50% effective concentration (EC50) fell in the range of 200 to 1000 nM.

With `CC12CC(C(=O)Nc3c[nH]c4ccc(OCc5ccc(C(F)(F)F)cc5)cc34)(C1)C2` [Compound 163, 3-methyl-N-(5-((4-(trifluoromethyl)benzyl)oxy)-1H-indol-3-yl)bicyclo[1.1.1]pentane-1-carboxamide], the EC50 fell in the range of 200 to 1000 nM.

In the case of `O=C(Nc1c[nH]c2ccc(OCc3ccc(C(F)(F)F)cc3)cc12)C12CC(C1)C2` [Compound 164, N-(5-((4-(trifluoromethyl)benzyl)oxy)-1H-indol-3-yl)bicyclo[1.1.1]pentane-1-carboxamide], the 50% effective concentration (EC50) lay in the range of 200 to 1000 nM.

Turning to `O=C(Nc1c[nH]c2ccc(OCc3ccc(C(F)(F)F)cc3)cc12)c1cscn1` [Compound 165, N-(5-((4-(trifluoromethyl)benzyl)oxy)-1H-indol-3-yl)thiazole-4-carboxamide], the concentration for a half-maximal effect (EC50) was 1000 to 5000 nM.

With `O=C(Nc1c[nH]c2ccc(O[C@H]3C[C@@H](c4ccc(C(F)(F)F)cc4)C3)cc12)c1ccncc1` [Compound 166, N-(5-((1s,3s)-3-(4-(trifluoromethyl)phenyl)cyclobutoxy)-1H-indol-3-yl)isonicotinamide], the concentration giving a half-maximal response (EC50) was 200 to 1000 nM.

Turning to `O=C(Nc1c[nH]c2ccc(O[C@H]3C[C@@H](c4ccc(C(F)(F)F)cc4)C3)cc12)c1ccn[nH]1` [Compound 167, N-(5-((1s,3s)-3-(4-(trifluoromethyl)phenyl)cyclobutoxy)-1H-indol-3-yl)-1H-pyrazole-5-carboxamide], the EC50 lay in the range of 40 to 200 nM.

On to `Cn1nccc1C(=O)Nc1c[nH]c2ccc(O[C@H]3C[C@@H](c4ccc(C(F)(F)F)cc4)C3)cc12` [Compound 168, 1-methyl-N-(5-((1s,3s)-3-(4-(trifluoromethyl)phenyl)cyclobutoxy)-1H-indol-3-yl)-1H-pyrazole-5-carboxamide], for which the EC50 lay within 200 to 1000 nM.

As to `O=C(Nc1c[nH]c2ccc(O[C@H]3C[C@@H](c4ccc(C(F)(F)F)cc4)C3)cc12)c1cccnc1` [Compound 169, N-(5-((1s,3s)-3-(4-(trifluoromethyl)phenyl)cyclobutoxy)-1H-indol-3-yl)nicotinamide], the EC50 fell in the range of 40 to 200 nM.

For `O=C(Nc1c[nH]c2ccc(O[C@H]3C[C@@H](c4ccc(C(F)(F)F)cc4)C3)cc12)c1ccccn1` [Compound 170, N-(5-((1s,3s)-3-(4-(trifluoromethyl)phenyl)cyclobutoxy)-1H-indol-3-yl)picolinamide], the concentration for a half-maximal effect (EC50) fell in the range of 1000 to 5000 nM.

For `CC12CC(C(=O)Nc3c[nH]c4ccc(O[C@H]5C[C@@H](c6ccc(C(F)(F)F)cc6)C5)cc34)(C1)C2` [Compound 171, 3-methyl-N-(5-((1s,3s)-3-(4-(trifluoromethyl)phenyl)cyclobutoxy)-1H-indol-3-yl)bicyclo[1.1.1]pentane-1-carboxamide], the EC50 lay in the range of 200 to 1000 nM.

Turning to `O=C(Nc1c[nH]c2ccc(O[C@H]3C[C@@H](c4ccc(C(F)(F)F)cc4)C3)cc12)C1CC12CC2` (stereo partly drawn) [Compound 172, N-(5-((1s,3s)-3-(4-(trifluoromethyl)phenyl)cyclobutoxy)-1H-indol-3-yl)spiro[2.2]pentane-1-carboxamide], the concentration giving a half-maximal response (EC50) fell in the range of 200 to 1000 nM.

As to `O=C(Nc1c[nH]c2ccc(O[C@H]3C[C@@H](c4ccc(C(F)(F)F)cc4)C3)cc12)C12CC(C1)C2` [Compound 173, N-(5-((1s,3s)-3-(4-(trifluoromethyl)phenyl)cyclobutoxy)-1H-indol-3-yl)bicyclo[1.1.1]pentane-1-carboxamide], the EC50 was in the range of 200 to 1000 nM.

Consider `O=C(Nc1c[nH]c2ccc(O[C@H]3C[C@@H](c4ccc(C(F)(F)F)cc4)C3)cc12)c1ncccc1F` [Compound 174, 3-fluoro-N-(5-((1s,3s)-3-(4-(trifluoromethyl)phenyl)cyclobutoxy)-1H-indol-3-yl)picolinamide], for which the 50% effective concentration (EC50) lay within 200 to 1000 nM.

`O=C(Nc1c[nH]c2ccc(O[C@H]3C[C@@H](c4ccc(C(F)(F)F)cc4)C3)cc12)c1nccs1` [Compound 175, N-(5-((1s,3s)-3-(4-(trifluoromethyl)phenyl)cyclobutoxy)-1H-indol-3-yl)thiazole-2-carboxamide]: the EC50 lay in the range of 200 to 1000 nM.

For `Cc1oncc1C(=O)Nc1c[nH]c2ccc(O[C@H]3C[C@@H](c4ccc(C(F)(F)F)cc4)C3)cc12` [Compound 176, 5-methyl-N-(5-((1s,3s)-3-(4-(trifluoromethyl)phenyl)cyclobutoxy)-1H-indol-3-yl)isoxazole-4-carboxamide], the half-maximal effective concentration (EC50) fell in the range of 5000 to 100000 nM.

In the case of `Cc1noc(C)c1C(=O)Nc1c[nH]c2ccc(O[C@H]3C[C@@H](c4ccc(C(F)(F)F)cc4)C3)cc12` [Compound 177, 3,5-dimethyl-N-(5-((1s,3s)-3-(4-(trifluoromethyl)phenyl)cyclobutoxy)-1H-indol-3-yl)isoxazole-4-carboxamide], the 50% effective concentration (EC50) lay within 40 to 200 nM.

For the molecule `O=C(Nc1c[nH]c2ccc(O[C@H]3C[C@@H](c4ccc(C(F)(F)F)cc4)C3)cc12)c1cncs1` [Compound 178, N-(5-((1s,3s)-3-(4-(trifluoromethyl)phenyl)cyclobutoxy)-1H-indol-3-yl)thiazole-5-carboxamide], the half-maximal effective concentration (EC50) is 200 to 1000 nM.

As to `O=C(Nc1c[nH]c2ccc(OCC[C@@H]3C[C@@H]4CN(CC(F)(F)F)C[C@@H]4C3)cc12)c1ccncc1` [Compound 179, N-(5-(2-((3aR,5r,6aS)-2-(2,2,2-trifluoroethyl)octahydrocyclopenta[c]pyrrol-5-yl)ethoxy)-1H-indol-3-yl)isonicotinamide], the 50% effective concentration (EC50) is 200 to 1000 nM.

On to `O=C(Nc1c[nH]c2ccc(OCC[C@@H]3C[C@@H]4CN(CC(F)(F)F)C[C@@H]4C3)cc12)c1ccn[nH]1` [Compound 180, N-(5-(2-((3aR,5r,6aS)-2-(2,2,2-trifluoroethyl)octahydrocyclopenta[c]pyrrol-5-yl)ethoxy)-1H-indol-3-yl)-1H-pyrazole-5-carboxamide], for which the concentration for a half-maximal effect (EC50) lay within 200 to 1000 nM.

As to `Cn1nccc1C(=O)Nc1c[nH]c2ccc(OCC[C@@H]3C[C@@H]4CN(CC(F)(F)F)C[C@@H]4C3)cc12` [Compound 181, 1-methyl-N-(5-(2-((3aR,5r,6aS)-2-(2,2,2-trifluoroethyl)octahydrocyclopenta[c]pyrrol-5-yl)ethoxy)-1H-indol-3-yl)-1H-pyrazole-5-carboxamide], the EC50 was in the range of 200 to 1000 nM.

Turning to `O=C(Nc1c[nH]c2ccc(OCC[C@@H]3C[C@@H]4CN(CC(F)(F)F)C[C@@H]4C3)cc12)c1cccnc1` [Compound 182, N-(5-(2-((3aR,5r,6aS)-2-(2,2,2-trifluoroethyl)octahydrocyclopenta[c]pyrrol-5-yl)ethoxy)-1H-indol-3-yl)nicotinamide], the 50% effective concentration (EC50) was 200 to 1000 nM.
